In test [1] the test system is Hepatitis C virus. Kind of test: Antiviral activity against HCV Con1 GT1b by replicon assay. Conditions: Hepatitis C virus, Con1 GT1b. Type of test: functional, organism-based, Hepacivirus hominis.
The test system of test [2] is Hepatitis C virus. Briefly: Antiviral activity against HCV Con1 GT1b at 100 uM by replicon assay. Format: functional, Hepacivirus hominis. In general terms: A replicon is a self-replicating genome or part of one, used to study replication in cells.

From ChEMBL document CHEMBL1152361, “The application of phosphoramidate ProTide technology to the potent anti-HCV compound 4'-azidocytidine (R1479)” (Bioorg Med Chem Lett, 2009) come the findings set out here.

By IC50 is commonly meant the concentration that inhibits the measured activity by half. Lower therefore signals inhibition by little substance. The inhibition is the relative decrease from the control value, in per cent. Low readings indicate little suppression, high ones strong suppression.

Take `[N-]=[N+]=N[C@]1(COP(=O)(N[C@@H](Cc2ccccc2)C(=O)OCc2ccccc2)Oc2ccccc2)O[C@@H](n2ccc(N)nc2=O)[C@H](O)[C@@H]1O` (stereo partly specified): in the test with Hepatitis C virus [1], the IC50 was found to be 7.7 µM. The compound further showed an inhibition at 100 µM in the test with Hepatitis C virus [2] of 89%.

In the test with Hepatitis C virus [1], `CC(C)C[C@@H](NP(=O)(OC[C@@]1(N=[N+]=[N-])O[C@@H](n2ccc(N)nc2=O)[C@H](O)[C@@H]1O)Oc1ccccc1)C(=O)OCc1ccccc1` (stereo partly specified) gave an IC50 of 4.2 µM. In the test on Hepatitis C virus [2], this compound gave an inhibition at 100 µM of 88%.

As to `CCOC(=O)C[C@H](NP(=O)(OC[C@@]1(N=[N+]=[N-])O[C@@H](n2ccc(N)nc2=O)[C@H](O)[C@@H]1O)Oc1ccccc1)C(=O)OCC` (stereo partly specified), half-maximal inhibition in the test on Hepatitis C virus [1] (IC50) required 4.4 µM. For the same compound, 100 µM produced 88% inhibition in the test with Hepatitis C virus [2].
